test system: PDGF-R; assay: PDGF-R Assay (cellular ELISA, U1242 cells); assay type: cell-based; parameters: concentration or dose not given beside the values; conditions: protocol P.119
How it was run: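 Cellular ELISA for receptor autophosphorylation: after 2 hr test-compound treatment of serum-free U1242 cells at 37°C, ligand is added for 5–10 min, cells are lysed (HNTG) and receptor captured by specific antibody. Anti-phosphotyrosine plus secondary antibody with ABTS colour read at 410/630 nm, compared with compound-free control cells.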

| Structure (SMILES) | PDGF Kinase % Inhibition (P.119) |
| --- | --- |
| Cc1c(Br)cc(Br)c2c1C(=Cc1cccc(F)c1)C(=O)N2 [10736/H07] | −21.9% |
| Cc1c(Br)cc(Br)c2c1C(=Cc1ccccc1F)C(=O)N2 [10736/H08] | −17.9% |
| CCc1ccc(C=C2C(=O)Nc3c(Br)cc(Br)c(C)c32)cc1 [10736/H09] | −14.8% |
| COc1cccc(C=C2C(=O)Nc3c(Br)cc(Br)c(C)c32)c1 [10736/H10] | −21.0% |
| Cc1c(Br)cc(Br)c2c1C(=Cc1ccccc1Cl)C(=O)N2 [10736/H11] | −12.7% |
| CCOc1ccc(C=C2C(=O)Nc3c(Br)cc(Br)cc32)cc1 [10737/A02] | 6.6% |
| Cc1ccc(C=C2C(=O)Nc3c(Br)cc(Br)cc32)c(C)c1 [10737/A03] | 38.8% |
| O=C1Nc2c(Br)cc(Br)cc2C1=Cc1cc(F)ccc1F [10737/A04] | 23.7% |
| O=C1Nc2c(Br)cc(Br)cc2C1=Cc1cccc(F)c1F [10737/A05] | 21.7% |
| COc1ccc(C=C2C(=O)Nc3c(Br)cc(Br)cc32)cc1F [10737/A06] | 15.7% |
| Cc1ccc(C)c(C=C2C(=O)Nc3c(Br)cc(Br)cc32)c1 [10737/A07] | 7.0% |
| O=C1Nc2c(Br)cc(Br)cc2C1=Cc1ccc2ccccc2c1 [10737/A08] | 1.0% |
| O=C1Nc2c(Br)cc(Br)cc2C1=Cc1ccc(Oc2ccccc2)cc1 [10737/A09] | 18.9% |
| CC(C)(C)c1ccc(Oc2cccc(C=C3C(=O)Nc4c(Br)cc(Br)cc43)c2)cc1 [10737/A10] | −3.8% |
| O=C1Nc2c(Br)cc(Br)cc2C1=Cc1cccc(Oc2cccc(C(F)(F)F)c2)c1 [10737/A11] | 28.1% |
| CCOc1ccc(C=C2C(=O)Nc3ccc(I)cc32)cc1 [10737/B02] | −28.9% |
| Cc1ccc(C=C2C(=O)Nc3ccc(I)cc32)c(C)c1 [10737/B03] | 29.7% |

| Structure (SMILES) | PDGF Kinase % Inhibition (P.119) |
| --- | --- |
| O=C1Nc2ccc(I)cc2C1=Cc1cc(F)ccc1F [10737/B04] | 12.5% |
| O=C1Nc2ccc(I)cc2C1=Cc1cccc(F)c1F [10737/B05] | 19.7% |
| COc1ccc(C=C2C(=O)Nc3ccc(I)cc32)cc1F [10737/B06] | 20.1% |
| Cc1ccc(C)c(C=C2C(=O)Nc3ccc(I)cc32)c1 [10737/B07] | 18.9% |
| O=C1Nc2ccc(I)cc2C1=Cc1ccc2ccccc2c1 [10737/B08] | −0.6% |
| O=C1Nc2ccc(I)cc2C1=Cc1ccc(Oc2ccccc2)cc1 [10737/B09] | −14.1% |
| CC(C)(C)c1ccc(Oc2cccc(C=C3C(=O)Nc4ccc(I)cc43)c2)cc1 [10737/B10] | −10.2% |
| O=C1Nc2ccc(I)cc2C1=Cc1cccc(Oc2cccc(C(F)(F)F)c2)c1 [10737/B11] | −10.2% |
| CCOc1ccc(C=C2C(=O)Nc3ccc(Br)c(C)c32)cc1 [10737/C02] | −2.2% |
| Cc1ccc(C=C2C(=O)Nc3ccc(Br)c(C)c32)c(C)c1 [10737/C03] | 7.0% |
| Cc1c(Br)ccc2c1C(=Cc1cc(F)ccc1F)C(=O)N2 [10737/C04] | 25.7% |
| Cc1c(Br)ccc2c1C(=Cc1cccc(F)c1F)C(=O)N2 [10737/C05] | 12.5% |
| COc1ccc(C=C2C(=O)Nc3ccc(Br)c(C)c32)cc1F [10737/C06] | 7.8% |
| Cc1ccc(C)c(C=C2C(=O)Nc3ccc(Br)c(C)c32)c1 [10737/C07] | 8.6% |
| Cc1c(Br)ccc2c1C(=Cc1ccc3ccccc3c1)C(=O)N2 [10737/C08] | 14.5% |
| Cc1c(Br)ccc2c1C(=Cc1ccc(Oc3ccccc3)cc1)C(=O)N2 [10737/C09] | −1.8% |
| Cc1c(Br)ccc2c1C(=Cc1cccc(Oc3ccc(C(C)(C)C)cc3)c1)C(=O)N2 [10737/C10] | 6.6% |

Source: patent publication US20020026053A1, “Novel 3-(substituted) -2- indolinones compounds and use thereof as inhibitors of protein kinase activity” (priority 1997, published 2002)
